US11000560B2, “Oncolytic adenoviruses with mutations in immunodominant adenovirus epitopes and their use in cancer treatment” (VCN B[…], priority 2015, dated 2021)

Test system: human HLA-A2.1
Assay: HLA-A2.1 stabilization assay (RMA-S A2 cells)
Format: binding
Conditions: for reduction of HLA-A2 binding compared to unmodified counterpart: from Kd values; for HLA-A2 binding compared to unmodified counterpart: peptide 300 to 0.1 μM
Experimental: An HLA-A2.1 stabilization assay was used, with minor modifications from Takiguchi et al. (Takiguchi, M., Tissue Antigens. 2000 April; 55(4):296-302) (incorporated by reference herein in its entirety), to evaluate the binding affinity of mutated peptides. Murine cells expressing HLA-A2.1 (RMA-S A2 cells) were incubated for 18 h at 26° C. in order to allow for HLA-A2 surface expression in the absence of any peptide. Peptides were serially diluted 1:3 in a 96-well plate with a U shape bottom, starting with 300 μM up to 0.1 μM in 100 μl volume. 2.5e5 RMA-S A2 cells were added to each well in 100 μl volume. The mixture was incubated for 2 hours at 26° C. and then at 37° C. for 2 hours to allow unbound HLA-A2.1 to be internalized. Cells were spun for 3 minutes at 500 g and washed three times with PBS, FBS 5%, BSA 0.5%. Cells were incubated with 100 μl of the supernatant of hybridoma anti-HLA-A2.1 (PA2.1) and incubated for 30 minutes at 4° C. Cells were washed three times and then incubated with Alexa Fluor® 488 goat anti-mouse IgG (Molecular Probes®) at 1:500 dilution for 30 minutes at 4° C. Cells were washed three times and then analyzed with Gallios flow cytometer (Beckman Coulter). As a negative control, RMA-S A2 cells were incubated with a peptide having no affinity to HLA-A2.1 under the same experimental conditions. The fluorescence index was calculated using the formula: Fluorescein Index=(sample fluorescence−negative control fluorescence)/negative control fluorescence.
Using GraphPad Prism v5, Kd values were analyzed using a non-linear regression. A Kd value was obtained for each peptide that represents the binding constant in equilibrium with half of the maximum possible binding.

Row | Sequence | reduction of HLA-A2 binding compared to unmodified counterpart | HLA-A2 binding compared to unmodified counterpart
1 | GLVDCYINP [L520P] | more than 10 times | 
2 | LLYANSAHS [A900S] |  | maintained the same level of binding
3 | YLNHTFKKA [V721A] |  | maintained the same level of binding
4 | YVLFEVFDK [V925K] | ~600 times | 
